Patent publication US11246910B2, “Methods of treating immunological disorders using immunosuppressive compositions” (Singapore Health Services Pte Ltd, priority 2016, dated 2022)

Columns and labels:
[1] = test system: DBA/2J mice with bleomycin-induced skin fibrosis; assay: Bleomycin-induced scleroderma (systemic sclerosis) mouse model; format: in vivo
Description: Skin fibrosis was induced in 6 to 8-week-old DBA/2J mice by subcutaneous injection of bleomycin (0.5 mg/mi) into defined areas of 1 cm^2 on the lower back every other day, for 21 days. After a 3-week bleomycin challenge, another 3-week treatment was followed. 50 ng/ml of CXCL5 was given twice/week for 3 consecutive weeks. Mice treated with dPBS, bone marrow-derived mesenchymal stem cells (BM-MSCs; 5-10×10^6 cells/kg, single injection) and Prednisolone (Pred) (1 mg/kg/day for first 10 days, 0.5 mg/kg/day for the second 10 days) were used as positive and standard controls. Mice were sacrificed on day 21 post-treatment and the injected skin and peripheral blood were processed for further analysis.
Lesioned skin areas were excised, fixed in 10% formalin, and embedded in paraffin. Sections (5 μm thick) were stained with hematoxylin & eosin (H&E). The dermal thickness was analyzed at 100-fold magnification by measuring the distance between the epidermal-dermal junction and the dermal-subcutaneous fat junction at four sites from the lesioned skin of each mouse. Dermal leukocyte infiltration was counted on randomly-taken photos with High Power Field (HPF) (400×). Five photos were taken for each mouse. The average cell number of these five photos was used for counting the leukocyte infiltration. Two independent examiners performed the evaluation.

male ICR mice = assay: Side effect on neutrophil and red blood cell count; format: in vivo, mouse; details: day 1, 3, 7, 14 post-treatment (FIGS. 5B, 5C)
Description: (A) Body weight changes. NSG mice were treated with CXCL5 and anti-CCL24 antibody twice weekly with gradually increasing dose (3 mice were used in each group). (B & C) Side effect on neutrophil and red blood cell count. ICR mice treated with dPBS, CXCL5 and anti-CCL24 antibody were bled and a blood count was performed on day 1, day 3, day 7 and day 14 post-treatment (4 male mice were used for each group). (D & E & F) Liver and kidney toxicity. ICR mice were treated with dPBS, CXCL5 and anti-CCL24 antibody on day 0, day 4 and day 7. Mice peripheral blood by cheek bleeding and urine were harvested on day 1, day 5 and day 8. Alanine transaminase (ALT) and aspartate transaminase (AST or SGOT) concentration in plasma were determined by ALT and AST activity assay kit. Both alanine transaminase and aspartate transaminase are enzyme associated with the liver and are therefore used as clinical marker for liver health. Albumin creatinine ratio (ACR) in urine was determined by Mouse Albumin ELISA kit and Jaffe's reaction using Creatinine Colorimetric Assay kit (3 female ICR mice were used for each group).

Substance: CXCL5: epithelial-derived neutrophil-activating protein 78, a CXC chemokine; human source
- leukocyte infiltration in the skin ([1]; FIG. 22B): 2.3±2.0 cells/HPF
- hematopoiesis in bone marrow ([1]; FIG. 23A): maintain the normal hematopoiesis in bone marrow
- effector cells in peripheral blood ([1]; FIG. 23B): suppressing the proliferation of monocytes and TH1 cells in peripheral blood
- skin thickness ([1]; after 3-week treatment (FIG. 22A)): 277.2±47.6 μm
- neutrophil and RBC count (male ICR mice): did not alter neutrophil and RBC count
